Where a name gives a salt, the structure may show the parent alone.
System: MIN6 cell
Test: Insulin secretion enhancing action in cultured β-cell (MIN6)
Type: cell-based
Settings: in the presence of 14.5 mM glucose; drug concentration 0.1 μM
Method: Culture of the MIN6 cells and insulin secretion test utilizing the MIN6 cells were performed basically according to the methods described in literature (Ishihara et al., Diabetologia, vol. 36, pp.1139-1145, 1993). The effect of a compound on the insulin secretion in the presence of 14.5 mM glucose was determined by measuring insulin amounts in cell culture supernatants collected as follows. MIN6 cells cultured on a 24-well plate were washed twice by using 1 ml of Buffer A (119 mM sodium chloride, 4.74 mM potassium chloride, 2.54 mM calcium chloride, 1.19 mM magnesium sulfate, 1.19 mM potassium dihydrogenphosphate, 10 mM 2-[4-(2-hydroxyethyl)-1-piperazinyl]ethanesulfonic acid, 0.1% bovine serum albumin, pH 7.3) containing 2 mM glucose, and then were incubated in 1 ml of Buffer A containing 2 mM glucose at 37° C. for 45 minutes. After the incubation, the culture supernatant was changed to Buffer A (0.9 ml) containing a test compound at various concentrations and 2 mM glucose, and the cells were further incubated at 37° C. for 15 minutes. The MIN6 cells were stimulated with glucose by the addition of Buffer A (0.1 ml) containing 127 mM glucose to the culture (final glucose concentration: 14.5 mM). After the stimulation, the cells were further incubated at 37° C. for 45 minutes, and then the culture supernatant was collected.
Separately, the effect of a compound on the insulin secretion in the presence of 5 mM glucose was determined by measuring insulin amounts in cell culture supernatants collected as follows. MIN6 cells cultured on a 24-well plate were washed twice by using 1 ml of Buffer A containing 5 mM glucose, and then the culture supernatant was changed to Buffer A (0.9 ml) containing a test compound at various concentrations and 5 mM glucose. Then, the cells were incubated at 37° C. for 45 minutes (final glucose concentration: 5 mM), and the culture supernatant was collected.
After the culture supernatant was diluted with a phosphate buffer containing 1% bovine serum albumin, 0.1% Tween 20, 0.12% disodium ethylenediaminetetraacetate and 0.1% sodium azide, antibody-reactive insulin secreted in the culture supernatant was quantified by enzyme immunoassay or radio immunoassay. […] The results are indicated as averages (avg) for 3 to 4 samples with standard error values (se).

| SMILES | Amount of secreted insulin (ng/ml) avg [ng/mL] |
| --- | --- |
| COc1ccc(Cl)cc1C(=O)NCCc1ccc(S(=O)(=O)NC(=O)NC2CCCCC2)cc1 [Glibenclamide, reference compound] | 177.8 |

Same assay, conditions: in the presence of 14.5 mM glucose; drug concentration 1.0 μM

| SMILES | Amount of secreted insulin (ng/ml) avg [ng/mL] |
| --- | --- |
| CCCN1C(=O)N2CC(Cc3ccc(F)cc3)N=C2c2[nH]c(C3CCCCC3)nc21 (stereo not drawn) [Compound 50, 2-cyclohexyl-8-(4-fluorobenzyl)-7,8-dihydro-4-propyl-1H-imidazo[2,1-i]purin-5(4H)-one hydrochloride] | 209.5 |
| CCCN1C(=O)N2C[C@H](C(C)(C)C)N=C2c2[nH]c(C3CCCC3)nc21.Cl [Compound 12, (S)-8-tert-butyl-2-cyclopentyl-7,8-dihydro-4-propyl-1H-imidazo[2,1-i]purin-5(4H)-one hydrochloride] | 227.8 |
| CCCN1C(=O)N2C[C@@H](Cc3ccc(F)cc3)N=C2c2[nH]c(-c3ccoc3)nc21 [Compound 54, (R)-8-(4-fluorobenzyl)-2-(3-furyl)-7,8-dihydro-4-propyl-1H-imidazo[2,1-i]purin-5(4H)-one] | 216.1 |
| CCCc1nc2c([nH]1)C1=N[C@H](Cc3ccccc3)CN1C(=O)N2CCC [Compound 35, (R)-8-benzyl-7,8-dihydro-2,4-dipropyl-1H-imidazo[2,1-i]purin-5(4H)-one hydrochloride] | 232.4 |
| CCCN1C(=O)N2CC(Cc3ccc(F)cc3)N=C2c2[nH]c(C3CCCC3)nc21 (stereo not drawn) [Compound 18, 2-cyclopentyl-8-(4-fluorobenzyl)-7,8-dihydro-4-propyl-1H-imidazo[2,1-i]purin-5(4H)-one hydrochloride] | 181.9 |
| CCCN1C(=O)N2CC(Cc3ccc(Cl)cc3)N=C2c2[nH]c(C3CCCC3)nc21 (stereo not drawn) [Compound 20, 8-(4-chlorobenzyl)-2-cyclopentyl-7,8-dihydro-4-propyl-1H-imidazo[2,1-i]purin-5(4H)-one hydrochloride] | 235.9 |
| CC(C)[C@H]1CC[C@H](C(=O)N[C@H](Cc2ccccc2)C(=O)O)CC1 [AY4166, AY-4166, reference compound] | 195.1 |
| CCCN1C(=O)N2C[C@@H](Cc3ccccc3)N=C2c2[nH]c(C3CCC3)nc21 [Compound 37, (R)-8-benzyl-2-cyclobutyl-7,8-dihydro-4-propyl-1H-imidazo[2,1-i]purin-5(4H)-one hydrochloride] | 202.8 |
| CCCN1C(=O)N2C[C@@H](Cc3ccccc3)N=C2c2[nH]c(C(C)(C)C)nc21 [Compound 43, (R)-8-benzyl-2-tert-butyl-7,8-dihydro-4-propyl-1H-imidazo[2,1-i]purin-5(4H)-one hydrochloride] | 199.1 |
| CCCN1C(=O)N2CC(Cc3cc(Cl)ccc3Cl)N=C2c2[nH]c(C3CCCC3)nc21 (stereo not drawn) [Compound 65, 2-cyclopentyl-8-(2,5-dichlorobenzyl)-7,8-dihydro-4-propyl-1H-imidazo[2,1-i]purin-5(4H)-one hydrochloride] | 207.8 |

Same assay, conditions: low glucose concentration (5 mM); controls for comparison

| SMILES | insulin secretion enhancing action at low glucose |
| --- | --- |
| COc1ccc(Cl)cc1C(=O)NCCc1ccc(S(=O)(=O)NC(=O)NC2CCCCC2)cc1 [Glibenclamide, reference compound] | showed marked secretion enhancing action |
| CC(C)[C@H]1CC[C@H](C(=O)N[C@H](Cc2ccccc2)C(=O)O)CC1 [AY4166, AY-4166, reference compound] | showed marked secretion enhancing action |

System: not given
Test: not given
Settings: not given

| SMILES | melting point [°C] |
| --- | --- |
| CCCCc1nc2c([nH]1)C1=NC(Cc3ccc(F)cc3)CN1C(=O)N2CCC.Cl (stereo not drawn) | 193 to 196 |
| CCCN1C(=O)N2C[C@H](C(C)C)N=C2c2[nH]c(C3CCCC3)nc21.Cl | 109 to 112 |
| CCCN1C(=O)N2C[C@@H](Cc3ccccc3)N=C2c2c1ncn2Cc1ccccc1.Cl | 198 to 200 |
| CCCN1C(=O)N2C[C@H](C(C)(C)C)N=C2c2[nH]c(C3CCCC3)nc21.Cl [Compound 12, (S)-8-tert-butyl-2-cyclopentyl-7,8-dihydro-4-propyl-1H-imidazo[2,1-i]purin-5(4H)-one hydrochloride] | 184 to 186 |
| CCCN1C(=O)N2CC(CCc3ccccc3)N=C2c2[nH]c(C3CCCC3)nc21 (stereo not drawn) (as salt: hydrochloride) [Compound 31, 2-cyclopentyl-7,8-dihydro-8-phenethyl-4-propyl-1H-imidazo[2,1-i]purin-5(4H)-one hydrochloride] | 171 to 173 |
| CCCc1nc2c([nH]1)C1=NC(Cc3ccc(F)cc3)CN1C(=O)N2CCC.Cl (stereo not drawn) | 199 to 200 |
| CCCc1nc2c([nH]1)C1=N[C@H](Cc3ccccc3)CN1C(=O)N2CCC (as salt: hydrochloride) [Compound 35, (R)-8-benzyl-7,8-dihydro-2,4-dipropyl-1H-imidazo[2,1-i]purin-5(4H)-one hydrochloride] | 195 to 197 |
| CCCN1C(=O)N2CC(Cc3ccc(F)cc3)N=C2c2[nH]c(C3CCCCC3)nc21 (stereo not drawn) (as salt: hydrochloride) [Compound 50, 2-cyclohexyl-8-(4-fluorobenzyl)-7,8-dihydro-4-propyl-1H-imidazo[2,1-i]purin-5(4H)-one hydrochloride] | 237 to 239 |
| CCCN1C(=O)N2CC(Cc3ccc([N+](=O)[O-])cc3)N=C2c2[nH]c(C3CCCC3)nc21.Cl (stereo not drawn) | 215 to 217 |
| CCCN1C(=O)N2CC(Cc3ccc(Cl)cc3)N=C2c2[nH]c(C3CCC3)nc21.Cl (stereo not drawn) | 214 to 215 |
| CCCN1C(=O)N2C[C@@H](C(C)C)N=C2c2[nH]c(C3CCCC3)nc21.Cl | 116 to 118 |
| CCCN1C(=O)N2CC(Cc3ccc(Cl)cc3)N=C2c2[nH]c(C3CCCC3)nc21 (stereo not drawn) (as salt: hydrochloride) [Compound 20, 8-(4-chlorobenzyl)-2-cyclopentyl-7,8-dihydro-4-propyl-1H-imidazo[2,1-i]purin-5(4H)-one hydrochloride] | 222 to 224 |
| CCCN1C(=O)N2CC(Cc3ccc(F)cc3)N=C2c2[nH]c(C3CCCC3)nc21 (stereo not drawn) (as salt: hydrochloride) [Compound 18, 2-cyclopentyl-8-(4-fluorobenzyl)-7,8-dihydro-4-propyl-1H-imidazo[2,1-i]purin-5(4H)-one hydrochloride] | 226 to 228 |
| CCCN1C(=O)N2CC(Cc3ccc(Br)cc3)N=C2c2[nH]c(C3CCCC3)nc21 (stereo not drawn) (as salt: hydrochloride) [Compound 23, 8-(4-bromobenzyl)-2-cyclopentyl-7,8-dihydro-4-propyl-1H-imidazo[2,1-i]purin-5(4H)-one hydrochloride] | 184 to 186 |
| CCCN1C(=O)N2CC(Cc3cc(Cl)ccc3Cl)N=C2c2[nH]c(C3CCCC3)nc21 (stereo not drawn) (as salt: hydrochloride) [Compound 65, 2-cyclopentyl-8-(2,5-dichlorobenzyl)-7,8-dihydro-4-propyl-1H-imidazo[2,1-i]purin-5(4H)-one hydrochloride] | 172 to 173 |

Now from value to molecule:

| melting point [°C] | SMILES |
| --- | --- |
| 214 to 216 | CCCN1C(=O)N2C[C@@H](Cc3ccccc3)N=C2c2[nH]c(C3CCC3)nc21 (as salt: hydrochloride) [Compound 37, (R)-8-benzyl-2-cyclobutyl-7,8-dihydro-4-propyl-1H-imidazo[2,1-i]purin-5(4H)-one hydrochloride] |
| 149 to 150 | CCCN1C(=O)N2C[C@@H](Cc3ccc(F)cc3)N=C2c2[nH]c(-c3ccoc3)nc21 [Compound 54, (R)-8-(4-fluorobenzyl)-2-(3-furyl)-7,8-dihydro-4-propyl-1H-imidazo[2,1-i]purin-5(4H)-one] |
| 146 to 148 | CCCCC1CN2C(=O)N(CCC)c3nc(C4CCCC4)[nH]c3C2=N1.Cl (stereo not drawn) |
| 139 to 140 | CCCc1nc2c([nH]1)C1=NC(Cc3cccc(F)c3)CN1C(=O)N2CCC.Cl (stereo not drawn) |
| 191 to 192 | CCCc1nc2c([nH]1)C1=NC(Cc3ccc(Cl)cc3)CN1C(=O)N2CCC.Cl (stereo not drawn) |
| 159 to 160 | CCCN1C(=O)N2CC(Cc3ccccc3F)N=C2c2[nH]c(CC(C)C)nc21 (stereo not drawn) |
| 164 to 165 | CCCN1C(=O)N2CC(Cc3cccc(F)c3)N=C2c2[nH]c(C3CCC3)nc21.Cl (stereo not drawn) |
| 218 to 219 | CCCN1C(=O)N2C[C@@H](C)N=C2c2[nH]c(C3CCCC3)nc21.Cl |
| 220 to 222 | CCCN1C(=O)N2C[C@@H](Cc3ccccc3)N=C2c2[nH]c(C(C)(C)C)nc21 (as salt: hydrochloride) [Compound 43, (R)-8-benzyl-2-tert-butyl-7,8-dihydro-4-propyl-1H-imidazo[2,1-i]purin-5(4H)-one hydrochloride] |
| 204 to 206 | CCCN1C(=O)N2C[C@H](C(C)(C)C)N=C2c2[nH]c(-c3ccoc3)nc21 [Compound 67, (S)-8-tert-butyl-2-(3-furyl)-7,8-dihydro-4-propyl-1H-imidazo[2,1-i]purin-5(4H)-one] |
| 186 to 187 | CCCN1C(=O)N2CC(Cc3cccc(F)c3)N=C2c2[nH]c(CC(C)C)nc21 (stereo not drawn) |
| 156 to 157 | CCCN1C(=O)N2C[C@H](C(C)C)N=C2c2[nH]c(C(C)C)nc21.Cl |

System: Wistar male rats
Test: not given
Settings: 1 mg/kg, iv

| SMILES | % Ratio based on control (area of plasma insulin) [%] |
| --- | --- |
| CCCc1nc2c([nH]1)C1=N[C@H](Cc3ccccc3)CN1C(=O)N2CCC [Compound 35, (R)-8-benzyl-7,8-dihydro-2,4-dipropyl-1H-imidazo[2,1-i]purin-5(4H)-one hydrochloride] | 178 ± 23 |

Same assay, conditions: 1 mg/kg, iv; after glucose-loading (10 mg/kg iv)

| SMILES | Area of plasma insulin, test compound-administered group [ng·s/mL] |
| --- | --- |
| CCCc1nc2c([nH]1)C1=N[C@H](Cc3ccccc3)CN1C(=O)N2CCC [Compound 35, (R)-8-benzyl-7,8-dihydro-2,4-dipropyl-1H-imidazo[2,1-i]purin-5(4H)-one hydrochloride] | 15.69 ± 2.04 |

— patent publication US6489331B1, “Remedies for diabetes” (Kyowa Hakko Kogyo Co., Ltd., priority 1998, dated 2002)
